Laboratory results from patent US5411983A, “Certain hyrdoxy-phosphinyl-oxy-phenylmethyl-imidazolium hydroxide inner salts as PAF antagonists” (American Cyanamid Company, priority 1993, dated 1995).
Where a name gives a salt, the structure may show the parent alone. Read-outs that look alike come from different tables or passages of the source.

Target: PAF receptor (Oryctolagus cuniculus, UniProt G1TEI7)
Experiment: Inhibition of PAF induced platelet aggregation in rabbit platelet rich plasma (PRP)
Type: cell-based, rabbit (male New Zealand White)
Design: immediately centrifuged at 800 rpm for 10 minutes at room temperature to recover the platelet rich plasma (PRP); endogenous in cells; host or cells: rabbit platelets in platelet rich plasma (male New Zealand White rabbits)
Conditions: rabbit platelet rich plasma
Protocol: Platelet activating factor (PAF) compounds were evaluated as PAF receptor antagonists in vitro by measuring inhibition of PAF induced platelet aggregation. Platelet aggregation was measured by a modification of the method of A. Wissner, et. al., J. Med. Chem., 27, 1174, 1984.
Approximately 120-240 ml of blood were collected by cardiac puncture from unanesthetized male New Zealand White rabbits (Whaley's Summit View Farms, Belvedere, N.J.) with the use of 3.2% sodium citrate anticoagulant (1 part of citrate/10 parts of blood). All syringes and pipets were plastic. The blood was gently mixed and immediately centrifuged at 800 rpm for 10 minutes at room temperature to recover the platelet rich plasma (PRP). Platelet poor plasma (PPP) was prepared by centrifuging PRP at 2800 rpm for 10 minutes at room temperature.
Dilutions (1:3000) Of PRP in Isoton diluent were made and platelet counts were determined on a Coulter Thrombocounter which was standardized with platelet reference standards (Interscience Platelet Control, Portland, Oreg.). PRP platelet counts were adjusted to 500,000 platelets/μl by the addition of PPP.
L-PAF was obtained from Calbiochem. A stock solution of 1-2 E-3M was prepared in 10% ethanol in water and serial working dilutions were made using phosphate buffered saline (PBS). 1-2 E-3M stock solutions of test compounds were prepared in 100% methanol and serially diluted in PBS. All solutions were made up in plastic tubes, stored on ice and protected from heat and light. Solutions were prepared fresh or frozen at -20° C. and used within 48 hours.
Incubation mixtures consisted of 400 μl PRP, 50 μl of PBS diluent or test compound and 50 μl of PAF agonist. More specifically, 400 μl of PRP was stabilized in a cuvette for 1-2 minutes at 37° C. in the aggregometer to achieve a stable baseline, then 50 μl of PBS or test compound, was added and incubated for 5 minutes before addition of the challenge concentration of PAF ([…], as determined from the dose response curve for PAF for that experiment). Aggregation was monitored for 5 minutes. Samples containing test compound or diluent were run simultaneously for comparison. Test compounds were initially evaluated at a screening concentration of 1E-5M. Those producing ≥ 50% inhibition of the magnitude of aggregation were then reevaluated in a dose response fashion (final concentrations 1E-7M to 5E-5M) and IC50 values were determined. Ki values were also calculated in some cases from [formula] where Ki =inhibitory constant
IC50 =molar concentration of test compound which gives 50% inhibition
[PAF]=molar concentration of PAF used as challenges
EC50 =molar concentration of PAF which gives 50% of maximal aggregation.
The recording equipment consisted of single or dual channel Chronolog aggregometers connected to dual channel 10 MV full scale deflection Omniscribe chart recorders (Houston Instruments). […] The bead suspension was used to set the 0% light transmission mark and clear water was used to set the 100% light transmission mark. These limits defined a full scale deflection. The aggregation traces were analyzed by a digitizing method (C. Kohler and B. Zoltan, J. Pharm. Methods, 12, 113, 1984) with x, y coordinate data stored in a computer file. A suitable program computed parameters of interest such as the magnitude of aggregation.

[1] = PAF challenge 5E-8M, read-out: IC50 (M) PRP, inhibition of PAF-induced platelet aggregation
[2] = IC50 (M) PRP, inhibition of PAF-induced platelet aggregation, PAF challenge 5E-8M
[3] = IC50 (M) PRP, inhibition of PAF-induced platelet aggregation, PAF challenge 1E-6M
[4] = IC50 (M) PRP, inhibition of PAF-induced platelet aggregation, PAF challenge 1E-7M

PAF receptor, sequence (G1TEI7 1-342): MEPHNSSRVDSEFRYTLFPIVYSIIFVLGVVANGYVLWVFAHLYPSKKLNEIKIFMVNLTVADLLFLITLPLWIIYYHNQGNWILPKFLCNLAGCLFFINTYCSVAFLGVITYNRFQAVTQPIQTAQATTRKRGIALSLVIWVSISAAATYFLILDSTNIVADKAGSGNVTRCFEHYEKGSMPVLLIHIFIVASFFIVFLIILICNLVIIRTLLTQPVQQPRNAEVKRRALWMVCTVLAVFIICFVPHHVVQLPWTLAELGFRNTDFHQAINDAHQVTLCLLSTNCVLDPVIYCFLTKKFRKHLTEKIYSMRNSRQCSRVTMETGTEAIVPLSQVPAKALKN

Row | Structure (SMILES) | IC50 [2] [M] | further results
1 | CCCCCCCCCCCCCCCCOCC(COC(=O)c1cccc(C[n+]2ccccn2)c1)OC (stereo not shown) [1-[[3-[[3-(Hexadecyloxy)-2-methoxypropoxy]carbonyl]phenyl]methyl]pyridazinium, bromide] | – | IC50 [1]: 1.1e-05 M
2 | CCCCCCCCCCCCCCCCOCC(COCc1cccc(Cn2ccnc2)c1)OC (stereo not shown) [1-[[3-[[3-(Hexdecyloxy)-2-methoxypropoxy]methyl]phenyl]methyl]-1H-imidazole] | – | IC50 [1]: 5.8e-05 M
3 | CCCCCCCCCCCCCCCCCCOP(=O)([O-])Oc1cccc(C[n+]2ccccc2)c1 [1-[[3-[[Hydroxy(octadecyloxy)phosphinyl]oxy]phenyl]methyl]pyridinium, hydroxide, inner salt] | 4.2e-05 | –
4 | CCCCCCCCCCCCCCc1cccc(OCC(COP(=O)([O-])Oc2cccc(C[n+]3ccccc3)c2)OC)c1 (stereo not shown) [1-[[3-[[Hydroxy[2-methoxy-3-(3-tetradecylphenoxy)propoxy]phosphinyl]oxy]phenyl]methyl]pyridinium, hydroxide, inner salt] | 4.1e-06 | IC50 [3]: 5.3e-05 M; IC50 [4]: 5.4e-06 M
5 | CCCCCCCCCCCCCCCCOCC(COP(=O)([O-])Oc1cccc(C[n+]2ccccc2)c1)OC (stereo not shown) [1-[[3-[[[3-(Hexadecyloxy)-2-methoxypropoxy]hydroxyphosphinyl]oxy]phenyl]methyl]pyridinium, hydroxide, inner salt] | 5.78e-06 to 6e-06 | IC50 [3]: 0.00018 M; IC50 [4]: 1e-05 M
6 | CCCCCCCCCCCCOc1cccc(OCC(COP(=O)([O-])Oc2cccc(C[n+]3ccccc3)c2)OC)c1C (stereo not shown) [1-[[3-[[[3-[3-(Dodecyloxy)-2-methylphenoxy]-2-methoxypropoxy]hydroxyphosphinyl]oxy]phenyl]methyl]pyridinium, hydroxide, inner salt] | 1.7e-07 | –
7 | CCCCCCCCCCCCOc1cccc(OCC(COP(=O)([O-])Oc2cccc(C[n+]3cccc4ccccc43)c2)OC)c1C (stereo not shown) [1-[[3-[[[3-[3-(Dodecyloxy)-2-methylphenoxy]-2-methoxypropoxy]hydroxyphosphinyl]oxy]phenyl]methyl]quinolinium, hydroxide, inner salt] | 7.3e-05 | IC50 [4]: 1.2e-05 M
8 | CCCCCCCCCCCCCCCCCCNC(=O)OCC(COP(=O)([O-])Oc1cccc(C[N+](C)(C)C)c1)OC (stereo not shown) [3-[(1-(Hydroxy-4-methoxy-7-oxo-2,6-dioxa-8-aza-1-phosphahexacosyl)oxy]- --N, --N, --N-trimethylbenzenemethanaminium, hydroxide, inner salt, P-oxide] | 0.0001 | –
9 | C=C(C)COC(COCCCCCCCCCCCCCCCC)COP(=O)([O-])Oc1ccccc1C[n+]1ccsc1 (stereo not shown) [3-[[2-[[[3-(Hexadecyloxy)-2-[(2-methyl-2-propenyl)oxy]propoxy]hydroxyphosphinyl]oxy]phenyl]methyl]thiazolium, hydroxide, inner salt] | 2.6e-06 | –
10 | CCCCCCCCCCCCCCCCOCC(COC(=O)c1cccc(C[N+](C)(C)C)c1)OC (stereo not shown) [3-[[3-(Hexadecyloxy)-2-methoxypropoxy]-carbonyl]- --N, --N, --N-trimethylbenzenemethanaminium, bromide] | – | IC50 (PAF challenge 1E-7M, read-out: IC50 (M) PRP, inhibition of PAF-induced platelet aggregation): 3e-05 M; IC50 [1]: 3.1e-05 M
11 | CCCCCCCCCCOCCOCCOCC(COP(=O)([O-])Oc1cccc(C[n+]2ccsc2)c1)OC (stereo not drawn) [3-[[3-[(1-Hydroxy-4-methoxy-2,6,9,12-tetraoxa-l-phosphadocos-l-yl)oxy]-phenyl]methyl]thiazolium, hydroxide, inner salt, P-oxide] | 8.3e-06 | –
12 | CCCCCCCCCCCCCCCCCCNC(=O)OCC(COP(=O)([O-])Oc1cccc(C[n+]2ccccc2)c1)OC (stereo not shown) [3-[[3-[(1-Hydroxy-4-methoxy-7-oxo-2,6-dioxa-8-aza-1-phosphahexacosyl)oxy]phenyl]methyl]pyridinium, hydroxide, inner salt, P-oxide] | 4.4e-06 | –
13 | COC(COCc1ccc(OCc2ccccc2)cc1)COP(=O)([O-])Oc1cccc(C[n+]2ccsc2)c1 (stereo not shown) [3-[[3-[(Hydroxy[2-methoxy-3-[[4-(phenylmethoxy)phenyl]methoxy]propoxy]phosphinyl]oxy]phenyl]methyl)thiazolium, hydroxide, inner salt] | 0.0004 | –
